Assay results taken from publication PMC3260308, “Substrate Specificity within a Family of Outer Membrane Carboxylate Channels” (PLoS Biology, 2012).
Where two headings read alike, the source gives them in different places.

Columns and labels:
[1] = molecular target: T1, OccK1 (formerly OpdK) (Pseudomonas aeruginosa, UniProt Q9HUR5); assay: competition of radiolabelled uptake in total membrane vesicles; type: biochemical; conditions: vs 0.5 uM 3H-benzoate, 5 uM unlabelled compound, 10 mM HEPES pH 7.0, 25 C, 10 min
T1 construct: pB22, N-terminal hexa-histidine tag; expressed in E. coli BL21 omp8, total membrane vesicles; purified protein for crystals
T1 sequence (Q9HUR5 28-417): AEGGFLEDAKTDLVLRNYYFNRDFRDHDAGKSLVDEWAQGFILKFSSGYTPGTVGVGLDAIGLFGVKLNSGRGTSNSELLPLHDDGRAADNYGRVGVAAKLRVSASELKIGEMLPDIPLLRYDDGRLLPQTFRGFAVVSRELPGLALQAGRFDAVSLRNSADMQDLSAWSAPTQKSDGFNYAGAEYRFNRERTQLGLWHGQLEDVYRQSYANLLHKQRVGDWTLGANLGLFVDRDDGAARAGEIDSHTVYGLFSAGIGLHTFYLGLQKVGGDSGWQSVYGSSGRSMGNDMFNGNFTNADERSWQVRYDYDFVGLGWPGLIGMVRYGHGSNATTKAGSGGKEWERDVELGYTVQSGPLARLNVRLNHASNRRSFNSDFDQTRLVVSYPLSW
Text: competition of radiolabelled uptake in total membrane vesicles on OccK1 (formerly OpdK)

[2] = molecular target: T2, OccD1 (formerly OprD) (Pseudomonas aeruginosa, UniProt P32722); type: biochemical; conditions: vs 0.25 uM 14C-arginine, 2.5 uM unlabelled compound, 10 mM HEPES pH 7.0, 25 C, 15 min
T2 construct: pB22, N-terminal hexa-histidine tag kept in vesicles; expressed in porin-deficient E. coli BL21 omp8; total membrane vesicles (purified protein for liposome swelling)
T2 sequence (P32722 24-443): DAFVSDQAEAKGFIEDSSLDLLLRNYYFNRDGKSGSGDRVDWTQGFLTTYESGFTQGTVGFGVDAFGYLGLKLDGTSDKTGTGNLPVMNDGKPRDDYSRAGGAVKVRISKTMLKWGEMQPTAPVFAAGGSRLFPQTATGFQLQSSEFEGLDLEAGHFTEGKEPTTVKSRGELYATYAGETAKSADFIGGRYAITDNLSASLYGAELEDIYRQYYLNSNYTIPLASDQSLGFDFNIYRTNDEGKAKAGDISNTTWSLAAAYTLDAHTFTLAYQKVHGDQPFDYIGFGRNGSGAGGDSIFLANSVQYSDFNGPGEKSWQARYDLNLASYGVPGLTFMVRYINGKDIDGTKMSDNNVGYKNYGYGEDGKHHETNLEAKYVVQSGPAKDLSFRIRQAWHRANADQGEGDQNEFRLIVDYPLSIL
Text: competition of radiolabelled uptake in total membrane vesicles on OccD1 (formerly OprD)

[3] = molecular target: T3, OccD3 (formerly OpdP) (Pseudomonas aeruginosa, UniProt Q9HVS0); assay: radiolabelled uptake in total membrane vesicles; type: biochemical; conditions: 0.25 uM 14C-arginine, 15 min, 10 mM HEPES pH 7.0, 25 C; labelled compound
T3 construct: pB22, N-terminal hexa-histidine tag; expressed in E. coli BL21 omp8, total membrane vesicles
T3 sequence (Q9HVS0 26-484): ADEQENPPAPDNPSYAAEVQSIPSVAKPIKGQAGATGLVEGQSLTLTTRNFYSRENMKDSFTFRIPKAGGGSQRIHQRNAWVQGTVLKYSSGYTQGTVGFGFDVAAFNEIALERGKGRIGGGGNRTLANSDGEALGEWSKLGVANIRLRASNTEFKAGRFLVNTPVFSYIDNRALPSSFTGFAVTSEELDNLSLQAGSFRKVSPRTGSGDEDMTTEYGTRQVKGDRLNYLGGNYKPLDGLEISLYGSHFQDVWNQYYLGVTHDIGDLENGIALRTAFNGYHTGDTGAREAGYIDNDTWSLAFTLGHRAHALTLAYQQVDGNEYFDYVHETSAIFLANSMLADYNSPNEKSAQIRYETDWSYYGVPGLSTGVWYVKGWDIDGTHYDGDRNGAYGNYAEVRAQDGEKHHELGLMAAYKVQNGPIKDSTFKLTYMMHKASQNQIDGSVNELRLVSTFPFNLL

[4] = molecular target: T4, OccD2 (formerly OpdC) (Pseudomonas aeruginosa, UniProt Q9I6X0); assay: radiolabelled uptake in total membrane vesicles; type: biochemical; conditions: 0.25 uM 14C-arginine, 15 min, 10 mM HEPES pH 7.0, 25 C; labelled compound
T4 construct: pB22, N-terminal hexa-histidine tag; expressed in E. coli BL21 omp8, total membrane vesicles
T4 sequence (Q9I6X0 23-444): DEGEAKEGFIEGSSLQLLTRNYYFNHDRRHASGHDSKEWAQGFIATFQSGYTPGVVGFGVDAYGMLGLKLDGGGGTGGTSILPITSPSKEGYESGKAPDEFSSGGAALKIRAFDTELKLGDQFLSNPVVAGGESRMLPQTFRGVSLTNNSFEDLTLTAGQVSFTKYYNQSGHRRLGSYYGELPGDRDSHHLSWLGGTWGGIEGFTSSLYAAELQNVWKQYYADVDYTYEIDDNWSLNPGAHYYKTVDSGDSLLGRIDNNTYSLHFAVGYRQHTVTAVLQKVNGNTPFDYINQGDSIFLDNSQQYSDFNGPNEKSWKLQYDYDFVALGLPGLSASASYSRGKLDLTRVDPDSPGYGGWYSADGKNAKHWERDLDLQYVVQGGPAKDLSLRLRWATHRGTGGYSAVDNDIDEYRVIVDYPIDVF

[5] = molecular target: T5, OccK2 (Pseudomonas aeruginosa, UniProt Q9I6P8); assay: competition of radiolabelled uptake in total membrane vesicles; type: biochemical; conditions: vs 0.5 uM 3H-glucuronate, 5 uM unlabelled compound, 10 mM HEPES pH 7.0, 25 C, 10 min
T5 construct: gene PA0240; pB22, N-terminal hexa-histidine tag; expressed in E. coli BL21 omp8, total membrane vesicles
T5 sequence (Q9I6P8 25-421): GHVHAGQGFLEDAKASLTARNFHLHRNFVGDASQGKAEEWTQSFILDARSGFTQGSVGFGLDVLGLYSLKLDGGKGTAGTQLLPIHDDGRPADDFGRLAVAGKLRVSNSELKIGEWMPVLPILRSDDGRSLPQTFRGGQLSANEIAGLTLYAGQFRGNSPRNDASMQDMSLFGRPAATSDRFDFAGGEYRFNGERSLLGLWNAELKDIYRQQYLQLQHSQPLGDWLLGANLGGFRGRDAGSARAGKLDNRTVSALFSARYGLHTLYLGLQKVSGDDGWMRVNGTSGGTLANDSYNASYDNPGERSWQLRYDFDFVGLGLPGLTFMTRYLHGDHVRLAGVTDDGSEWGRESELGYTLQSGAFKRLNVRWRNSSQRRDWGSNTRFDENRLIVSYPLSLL
Text: competition of radiolabelled uptake in total membrane vesicles on OccK2

[6] = molecular target: T6, OccK3 (Pseudomonas aeruginosa, UniProt Q9I202); assay: competition of pyroglutamate uptake in membrane vesicles; liposome swelling; type: biochemical; conditions: 10-fold excess over radiolabelled pyroglutamate, pH 7.0; uptake confirmed by liposome swelling
T6 construct: gene opdO; pB22, N-terminal hexa-histidine tag; expressed in E. coli BL21 omp8, total membrane vesicles; purified protein for liposome swelling
T6 sequence (Q9I202 26-409): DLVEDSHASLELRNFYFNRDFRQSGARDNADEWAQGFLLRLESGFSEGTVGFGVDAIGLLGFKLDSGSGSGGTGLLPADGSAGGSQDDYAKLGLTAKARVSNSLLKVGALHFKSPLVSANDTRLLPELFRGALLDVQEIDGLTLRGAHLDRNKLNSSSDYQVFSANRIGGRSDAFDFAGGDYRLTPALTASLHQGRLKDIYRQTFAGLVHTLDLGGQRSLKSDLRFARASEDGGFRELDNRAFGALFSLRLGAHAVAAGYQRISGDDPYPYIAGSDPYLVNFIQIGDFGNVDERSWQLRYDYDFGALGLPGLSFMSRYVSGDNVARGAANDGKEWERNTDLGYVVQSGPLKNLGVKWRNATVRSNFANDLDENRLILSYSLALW

[7] = molecular target: T2, OccD1 (formerly OprD); assay: competition of arginine uptake in membrane vesicles; liposome swelling; type: biochemical; conditions: 10-fold excess over 0.25 uM 14C-arginine, pH 7.0, 25 C; uptake confirmed by liposome swelling
[8] = molecular target: T2, OccD1 (formerly OprD); assay: competition of arginine uptake in membrane vesicles; type: biochemical; conditions: 10-fold excess over 0.25 uM 14C-arginine, pH 7.0, 25 C
[9] = molecular target: T7, OccK7 (Pseudomonas aeruginosa, UniProt Q9I4U9); assay: competition of benzoate uptake in membrane vesicles; type: biochemical; conditions: 10-fold excess over radiolabelled benzoate, pH 7.0
T7 construct: gene PA1025; pB22, N-terminal hexa-histidine tag; expressed in E. coli BL21 omp8, total membrane vesicles
T7 sequence (Q9I4U9 23-416): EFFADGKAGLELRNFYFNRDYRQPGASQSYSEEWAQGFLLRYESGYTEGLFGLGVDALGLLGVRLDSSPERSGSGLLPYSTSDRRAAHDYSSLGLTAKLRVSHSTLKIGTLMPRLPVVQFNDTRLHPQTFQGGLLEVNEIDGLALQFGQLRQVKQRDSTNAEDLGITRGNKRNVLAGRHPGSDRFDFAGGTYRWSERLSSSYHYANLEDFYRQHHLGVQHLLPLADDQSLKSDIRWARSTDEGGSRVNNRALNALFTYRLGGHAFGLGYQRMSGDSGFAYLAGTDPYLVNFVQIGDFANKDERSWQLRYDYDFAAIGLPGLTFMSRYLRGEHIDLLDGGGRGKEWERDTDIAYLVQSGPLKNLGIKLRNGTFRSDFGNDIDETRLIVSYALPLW

[10] = molecular target: T8, OccK4 (Pseudomonas aeruginosa, UniProt Q9HWP4); assay: radiolabelled uptake in total membrane vesicles; type: biochemical; conditions: 10 uM 14C-phenylacetate, 45 min; very low specific activity; labelled compound
T8 construct: gene PA4137; pB22, N-terminal hexa-histidine tag; expressed in E. coli BL21 omp8, total membrane vesicles
T8 sequence (Q9HWP4 entry or part of it): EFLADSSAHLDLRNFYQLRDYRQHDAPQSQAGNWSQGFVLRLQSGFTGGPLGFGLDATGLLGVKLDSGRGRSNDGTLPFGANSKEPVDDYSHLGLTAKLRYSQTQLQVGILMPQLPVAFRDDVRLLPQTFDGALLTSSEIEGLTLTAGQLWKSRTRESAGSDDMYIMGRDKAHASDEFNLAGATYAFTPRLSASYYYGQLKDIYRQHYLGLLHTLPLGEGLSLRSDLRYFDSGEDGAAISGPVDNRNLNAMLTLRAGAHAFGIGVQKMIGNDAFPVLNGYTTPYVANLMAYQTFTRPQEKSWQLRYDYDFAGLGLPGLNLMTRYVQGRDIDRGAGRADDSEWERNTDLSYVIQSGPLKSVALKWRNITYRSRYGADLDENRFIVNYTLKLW

[11] = molecular target: T6, OccK3; assay: radiolabelled uptake in total membrane vesicles; type: biochemical; conditions: 0.5 uM 3H-pyroglutamate, 15 min, 10 mM HEPES pH 7.0, 25 C; labelled compound
[12] = molecular target: OccD1 (P. aeruginosa) (UniProt P32722)
Chain of OccD1 (P. aeruginosa) (P32722 24-443): as the sequence (P32722 24-443) above

## O=C(O)c1ccc([N+](=O)[O-])cc1 [4-nitrobenzoate]
[1]
  OccK1: 16±3%

## N=C(N)NCCC[C@H](N)C(=O)O [Arginine]
[2]; self-competition
  OccD1: 2±1%
[3]
  radiolabelled uptake in total membrane vesicles: The efficient arginine uptake mediated by OccD3 is noteworthy
[4]
  radiolabelled uptake in total membrane vesicles: OccD2 and OccD3, while efficient in arginine uptake

## N[C@@H](Cc1cnc[nH]1)C(=O)O [Histidine]
[2]
  OccD1: 12±2%

## NCCCC[C@H](N)C(=O)O [Lysine]
[2]
  OccD1: 3±1%

## NCCC[C@H](N)C(=O)O [Ornithine]
[2]
  OccD1: 1±2%

## O=C(O)c1ccccc1 [benzoate]
[5]
  OccK2: 20±6%
[1]; self-competition, error printed as '+'
  OccK1: 1+3

## CCCCCC(=O)O [caproate]
[1]
  OccK1: 20±5%

## CO/N=C(\C(=O)N[C@@H]1C(=O)N2C(C(=O)O)=C(COC(C)=O)CS[C@H]12)c1csc(N)n1 [cefotaxime]
[6]
  % uptake remaining in 10-fold excess: OccK3-mediated transport is affected only with the cephalosporin cefotaxime

## O=C(O)[C@H]1OC(O)[C@H](O)[C@@H](O)[C@@H]1O (some centres unmarked) [glucuronate]
[5]; self-competition
  % radiolabelled uptake remaining: 3±3%

## C[C@@H](O)[C@H]1C(=O)N2C(C(=O)O)=C(SCCN=CN)C[C@H]12 [imipenem]
[7]
  % uptake remaining in 10-fold excess: For OccD1, inhibition of arginine uptake is caused only by imipenem and meropenem

## C[C@@H](O)[C@H]1C(=O)N2C(C(=O)O)=C(S[C@@H]3CN[C@H](C(=O)N(C)C)C3)[C@H](C)[C@H]12 [meropenem]
[8]
  % uptake remaining in 10-fold excess: For OccD1, inhibition of arginine uptake is caused only by imipenem and meropenem
[9]
  % uptake remaining in 10-fold excess: OccK7-mediated transport is lowered very efficiently by meropenem

## O=C(O)Cc1ccccc1 [phenylacetate]
[10]
  radiolabelled uptake in total membrane vesicles: OccK4 was indeed the most efficient phenylacetate uptake channel of the proteins tested

## O=C1CC[C@@H](C(=O)O)N1 [pyroglutamate]
[5]
  OccK2: 25±2%
[1]
  OccK1: 15±1%
[11]
  radiolabelled uptake in total membrane vesicles: the channel that is most efficient in pyroglutamate uptake (OccK3)

## Arg-Arg dipeptide
[12]
  uptake of radiolabeled arginine by OccD1 in E. coli BL21 omp8 total membrane vesicles in the presence of a 10-fold excess of the unlabeled compound, as a percentage of uptake without it: 40%
